Laboratory results reported in ChEMBL document CHEMBL1201861, “Genomics of Drug Sensitity in Cancer screening data, Wellcome Trust Sanger Institute”.

What was measured:
Test in all cases: cells
[1] = test system: Ca-Ski; format: functional, cell-based, Homo sapiens;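 also: cell viability assay measuring inhibition of Ca-Ski cell growth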
Description: SANGER: Inhibition of human Ca-Ski cell growth in a cell viability assay.

[2] = test system: Detroit 562; format: functional, cell-based, Homo sapiens;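 also: growth inhibition of human Detroit 562 cells, read out by a cell viability assay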
Description: SANGER: Inhibition of human Detroit562 cell growth in a cell viability assay.

[3] = test system: EFO-21; format: functional, cell-based, Homo sapiens;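 also: growth inhibition of EFO-21 cells measured with a viability assay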
Description: SANGER: Inhibition of human EFO-21 cell growth in a cell viability assay.

[4] = test system: HCC1954; format: functional, cell-based, Homo sapiens;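 also: growth inhibition of human HCC1954 cells, read out with a cell viability assay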
Description: SANGER: Inhibition of human HCC1954 cell growth in a cell viability assay.

[5] = test system: HMV-2 cell line; format: functional, cell-based, Homo sapiens;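 also: growth inhibition of HMV-II cells, read out with a cell viability assay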
Description: SANGER: Inhibition of human HMV-II cell growth in a cell viability assay.

[6] = test system: HOP-92; format: functional, cell-based, Homo sapiens;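 also: cell viability readout, with IC50 reflecting inhibition of HOP-92 cell growth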
Description: SANGER: Inhibition of human HOP-92 cell growth in a cell viability assay.

[7] = test system: HT1197; format: functional, cell-based, Homo sapiens, HT-1197
Description: SANGER: Inhibition of human HT-1197 cell growth in a cell viability assay.

[8] = test system: IGR-1; format: functional, cell-based, Homo sapiens;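 also: growth inhibition of human IGR-1 cells, read out with a cell viability assay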
Description: SANGER: Inhibition of human IGR-1 cell growth in a cell viability assay.

[9] = test system: KNS-62; format: functional, cell-based, Homo sapiens;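 also: inhibition of cell growth, read out with a cell viability assay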
Description: SANGER: Inhibition of human KNS-62 cell growth in a cell viability assay.

[10] = test system: KP-N-YN; format: functional, cell-based, Homo sapiens;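 also: growth inhibition of KP-N-YN cells, read out with a cell viability assay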
Description: SANGER: Inhibition of human KP-N-YN cell growth in a cell viability assay.

[11] = test system: KYSE-150 cell line; format: functional, cell-based, Homo sapiens;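 also: growth inhibition of human KYSE-150 cells, read out with a cell viability assay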
Description: SANGER: Inhibition of human KYSE-150 cell growth in a cell viability assay.

[12] = test system: MDA-MB-415; format: functional, cell-based, Homo sapiens
[13] = test system: MEL-JUSO; format: functional, cell-based, Homo sapiens;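 also: growth inhibition of human MEL-JUSO cells, read out with a cell viability assay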
Description: SANGER: Inhibition of human MEL-JUSO cell growth in a cell viability assay.

[14] = test system: MKN-7; format: functional, cell-based, Homo sapiens;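 also: growth inhibition of MKN-7 cells, read out with a cell viability assay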
Description: SANGER: Inhibition of human MKN7 cell growth in a cell viability assay.

[15] = test system: NCI-H1703; format: functional, cell-based, Homo sapiens;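 also: growth inhibition of NCI-H1703 cells, read out via a cell viability assay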
Description: SANGER: Inhibition of human NCI-H1703 cell growth in a cell viability assay.

[16] = test system: NCI-H2030; format: functional, cell-based, Homo sapiens;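 also: growth inhibition of human NCI-H2030 cells, read out by a cell viability assay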
Description: SANGER: Inhibition of human NCI-H2030 cell growth in a cell viability assay.

[17] = test system: NCI-H2170; format: functional, cell-based, Homo sapiens;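 also: cell viability assay measuring growth inhibition of human NCI-H2170 cancer cells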
Description: SANGER: Inhibition of human NCI-H2170 cell growth in a cell viability assay.

[18] = test system: NCI-H2405; format: functional, cell-based, Homo sapiens;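 also: growth inhibition of the human cell line, read out with a cell viability assay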
Description: SANGER: Inhibition of human NCI-H2405 cell growth in a cell viability assay.

[19] = test system: NCI-H2452; format: functional, cell-based, Homo sapiens;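 also: growth inhibition of NCI-H2452 cells, read out with a cell viability assay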
Description: SANGER: Inhibition of human NCI-H2452 cell growth in a cell viability assay.

[20] = test system: NCI-H460; format: functional, cell-based, Homo sapiens;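 also: cell viability assay scoring growth inhibition of human NCI-H460 cells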
Description: SANGER: Inhibition of human NCI-H460 cell growth in a cell viability assay.

[21] = test system: NCI-H727; format: functional, cell-based, Homo sapiens;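 also: growth inhibition of human NCI-H727 cells, read out with a cell viability assay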
Description: SANGER: Inhibition of human NCI-H727 cell growth in a cell viability assay.

[22] = test system: NY; format: functional, cell-based, Homo sapiens
Description: SANGER: Inhibition of human NY cell growth in a cell viability assay.

[23] = test system: OAW-28; format: functional, cell-based, Homo sapiens;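 also: growth inhibition of OAW-28 cells, read out with a cell viability assay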
Description: SANGER: Inhibition of human OAW-28 cell growth in a cell viability assay.

[24] = test system: RCM-1; format: functional, cell-based, Homo sapiens;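 also: growth inhibition of the RCM-1 line, determined with a cell viability readout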
Description: SANGER: Inhibition of human RCM-1 cell growth in a cell viability assay.

[25] = test system: RD; format: functional, cell-based, Homo sapiens
Description: SANGER: Inhibition of human RD cell growth in a cell viability assay.

[26] = test system: RERF-LC-MS; format: functional, cell-based, Homo sapiens;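 also: growth inhibition of human RERF-LC-MS cells, read out by a cell viability assay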
Description: SANGER: Inhibition of human RERF-LC-MS cell growth in a cell viability assay.

[27] = test system: SCC-4; format: functional, cell-based, Homo sapiens;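 also: growth inhibition of human SCC-4 cells, read out as cell viability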
Description: SANGER: Inhibition of human SCC-4 cell growth in a cell viability assay.

[28] = test system: SCC-9; format: functional, cell-based, Homo sapiens;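 also: Read-out is a cell viability assay, with values giving inhibition of cell growth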
Description: SANGER: Inhibition of human SCC-9 cell growth in a cell viability assay.

[29] = test system: SW13; format: functional, cell-based, Homo sapiens;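 also: IC50 is inhibition of SW13 cell growth, read out with a cell viability assay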
Description: SANGER: Inhibition of human SW13 cell growth in a cell viability assay.

[30] = test system: SW1417; format: functional, cell-based, Homo sapiens;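 also: growth inhibition of human SW1417 cells, read out with a cell viability assay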
Description: SANGER: Inhibition of human SW1417 cell growth in a cell viability assay.

[31] = test system: SW-620; format: functional, cell-based, Homo sapiens;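 also: growth inhibition of human SW-620 cells, measured by a cell viability assay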
Description: SANGER: Inhibition of human SW620 cell growth in a cell viability assay.

[32] = test system: SAOS-2; format: functional, cell-based, Homo sapiens;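 also: growth inhibition of human Saos-2 cells determined by a cell viability assay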
Description: SANGER: Inhibition of human Saos-2 cell growth in a cell viability assay.

[33] = test system: ACHN; format: functional, cell-based, Homo sapiens;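 also: cell viability read-out used to gauge how strongly growth of human ACHN cells is suppressed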
Description: SANGER: Inhibition of human ACHN cell growth in a cell viability assay.

[34] = test system: BHT-101; format: functional, cell-based, Homo sapiens
Description: SANGER: Inhibition of human BHT-101 cell growth in a cell viability assay.

[35] = test system: BPH-1; format: functional, cell-based, Homo sapiens;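 also: cell viability assay measuring growth inhibition of human BPH-1 cells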
Description: SANGER: Inhibition of human BPH-1 cell growth in a cell viability assay.

[36] = test system: C3A; format: functional, cell-based, Homo sapiens;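 also: growth inhibition of C3A human cells, quantified with a cell viability readout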
Description: SANGER: Inhibition of human C3A cell growth in a cell viability assay.

[37] = test system: CAKI-1; format: functional, cell-based, Homo sapiens;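 also: growth inhibition of CAKI-1 cells, measured by a cell viability assay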
Description: SANGER: Inhibition of human CAKI-1 cell growth in a cell viability assay.

[38] = test system: ZR-75-30; format: functional, cell-based, Homo sapiens;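 also: growth inhibition of ZR-75-30 cells, measured with a cell viability readout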
Description: SANGER: Inhibition of human ZR-75-30 cell growth in a cell viability assay.

**Q.** Which results are given for `CS(=O)(=O)c1ccc(C(=O)Nc2ccc(Cl)c(-c3ccccn3)c2)c(Cl)c1` [VISMODEGIB]?
**A.** IC50 ([1]; Homo sapiens, Ca-Ski): > 10 µM; IC50 ([2]; Homo sapiens, Detroit 562): > 10 µM; IC50 ([3]; Homo sapiens, EFO-21): > 10 µM; IC50 ([4]; Homo sapiens, HCC1954): > 10 µM; IC50 ([5]; Homo sapiens, HMV-2): > 10 µM; IC50 ([6]; Homo sapiens, HOP-92): > 10 µM; IC50 ([7]; Homo sapiens, HT1197): > 10 µM; IC50 ([8]; Homo sapiens, IGR-1): > 10 µM; IC50 ([9]; Homo sapiens, KNS-62): > 10 µM; IC50 ([10]; Homo sapiens, KP-N-YN): > 10 µM; IC50 ([11]; Homo sapiens, KYSE-150): > 10 µM; IC50 ([12]; Homo sapiens, MDA-MB-415): > 10 µM; IC50 ([13]; Homo sapiens, MEL-JUSO): > 10 µM; IC50 ([14]; Homo sapiens, MKN-7): > 10 µM; IC50 ([15]; Homo sapiens, NCI-H1703): > 10 µM; IC50 ([16]; Homo sapiens, NCI-H2030): > 10 µM; IC50 ([17]; Homo sapiens, NCI-H2170): > 10 µM; IC50 ([18]; Homo sapiens, NCI-H2405): > 10 µM; IC50 ([19]; Homo sapiens, NCI-H2452): > 10 µM; IC50 ([20]; Homo sapiens, NCI-H460): > 10 µM; IC50 ([21]; Homo sapiens, NCI-H727): > 10 µM; IC50 ([22]; Homo sapiens, NY): > 10 µM; IC50 ([23]; Homo sapiens, OAW-28): > 10 µM; IC50 ([24]; Homo sapiens, RCM-1): > 10 µM; IC50 ([25]; Homo sapiens, RD): > 10 µM; IC50 ([26]; Homo sapiens, RERF-LC-MS): > 10 µM; IC50 ([27]; Homo sapiens, SCC-4): > 10 µM; IC50 ([28]; Homo sapiens, SCC-9): > 10 µM; IC50 ([29]; Homo sapiens, SW13): > 10 µM; IC50 ([30]; Homo sapiens, SW1417): > 10 µM; IC50 ([31]; Homo sapiens, SW-620): > 10 µM; IC50 ([32]; Homo sapiens, SAOS-2): > 10 µM; IC50 ([33]; Homo sapiens, ACHN): > 10 µM; IC50 ([34]; Homo sapiens, BHT-101): > 10 µM; IC50 ([35]; Homo sapiens, BPH-1): > 10 µM; IC50 ([36]; Homo sapiens, C3A): > 10 µM; IC50 ([37]; Homo sapiens, CAKI-1): > 10 µM; IC50 ([38]; Homo sapiens, ZR-75-30): > 10 µM

**Q.** CISPLATIN was tested. Which IC50 ([1]; ca-ski) did it give?
**A.** 10.3 µM

**Q.** What about the IC50 ([2]; detroit 562) of the same compound?
**A.** 38.3 µM

**Q.** What about the IC50 ([3]; efo-21) of the same compound?
**A.** 33.7 µM

**Q.** What about the IC50 ([4]; hcc1954) of the same compound?
**A.** 1030 µM

**Q.** And the IC50 ([5]; hmv-2)?
**A.** 11.2 µM

**Q.** What about the IC50 ([6]; hop-92) of the same compound?
**A.** 3.51 µM

**Q.** And the IC50 ([7]; ht-1197)?
**A.** 13.3 µM

**Q.** What about the IC50 ([8]; igr-1) of the same compound?
**A.** 575 µM

**Q.** What about the IC50 ([9]; kns-62) of the same compound?
**A.** 14 µM

**Q.** What about the IC50 ([10]; kp-n-yn) of the same compound?
**A.** 581 µM

**Q.** And the IC50 ([11]; kyse-150)?
**A.** 411 µM

**Q.** What about the IC50 ([12]; mda-mb-415) of the same compound?
**A.** 48.4 µM

**Q.** What about the IC50 ([13]; mel-juso) of the same compound?
**A.** 18.8 µM

**Q.** What about the IC50 ([14]; mkn-7) of the same compound?
**A.** 20 µM

**Q.** What about the IC50 ([15]; nci-h1703) of the same compound?
**A.** 148 µM

**Q.** And the IC50 ([16]; nci-h2030)?
**A.** 11.9 µM

**Q.** What about the IC50 ([17]; nci-h2170) of the same compound?
**A.** 23 µM

**Q.** And the IC50 ([18]; nci-h2405)?
**A.** 22.7 µM

**Q.** What about the IC50 ([19]; nci-h2452) of the same compound?
**A.** 213 µM

**Q.** And the IC50 ([20]; nci-h460)?
**A.** 345 µM

**Q.** And the IC50 ([21]; nci-h727)?
**A.** 691 µM

**Q.** And the IC50 ([22]; ny)?
**A.** 28.2 µM

**Q.** What about the IC50 ([23]; oaw-28) of the same compound?
**A.** 22.9 µM

**Q.** And the IC50 ([24]; rcm-1)?
**A.** 123 µM

**Q.** What about the IC50 ([25]; rd) of the same compound?
**A.** 14.6 µM

**Q.** And the IC50 ([26]; rerf-lc-ms)?
**A.** 418 µM

**Q.** And the IC50 ([27]; scc-4)?
**A.** 31 µM

**Q.** What about the IC50 ([28]; scc-9) of the same compound?
**A.** 23.6 µM

**Q.** And the IC50 ([29]; sw13)?
**A.** 14.3 µM

**Q.** What about the IC50 ([30]; sw1417) of the same compound?
**A.** 194 µM

**Q.** And the IC50 ([31]; sw-620)?
**A.** 160 µM

**Q.** What about the IC50 ([32]; saos-2) of the same compound?
**A.** 36.3 µM

**Q.** What about the IC50 ([33]; achn) of the same compound?
**A.** 8.05 µM

**Q.** And the IC50 ([34]; bht-101)?
**A.** 5.82 µM

**Q.** What about the IC50 ([35]; bph-1) of the same compound?
**A.** 17.9 µM

**Q.** What about the IC50 ([36]; c3a) of the same compound?
**A.** 407 µM

**Q.** What about the IC50 ([37]; caki-1) of the same compound?
**A.** 7.27 µM

**Q.** And the IC50 ([38]; zr-75-30)?
**A.** 72.2 µM

**Q.** Which IC50 ([1]; Homo sapiens, Ca-Ski) does the source give for `CO[C@H]1C[C@@H]2CC[C@@H](C)[C@@](O)(O2)C(=O)C(=O)N2CCCC[C@H]2C(=O)O[C@H]([C@H](C)C[C@@H]2CC[C@@H](OC(=O)C(C)(CO)CO)[C@H](OC)C2)CC(=O)[C@H](C)/C=C(\C)[C@@H](O)[C@@H](OC)C(=O)[C@H](C)C[C@H](C)/C=C/C=C/C=C/1C` [TEMSIROLIMUS] here?
**A.** > 0.2 µM

**Q.** And the IC50 ([2]; Homo sapiens, Detroit 562)?
**A.** > 0.2 µM

**Q.** What about the IC50 ([3]; Homo sapiens, EFO-21) of the same compound?
**A.** > 0.2 µM

**Q.** What about the IC50 ([4]; Homo sapiens, HCC1954) of the same compound?
**A.** > 0.2 µM

**Q.** And the IC50 ([5]; Homo sapiens, HMV-2)?
**A.** > 0.2 µM

**Q.** And the IC50 ([6]; Homo sapiens, HOP-92)?
**A.** > 0.2 µM

**Q.** What about the IC50 ([7]; Homo sapiens, HT1197) of the same compound?
**A.** > 0.2 µM

**Q.** What about the IC50 ([8]; Homo sapiens, IGR-1) of the same compound?
**A.** > 0.2 µM

**Q.** What about the IC50 ([9]; Homo sapiens, KNS-62) of the same compound?
**A.** 0.0504 µM

**Q.** What about the IC50 ([10]; Homo sapiens, KP-N-YN) of the same compound?
**A.** > 0.2 µM

**Q.** And the IC50 ([11]; Homo sapiens, KYSE-150)?
**A.** > 0.2 µM

**Q.** And the IC50 ([12]; Homo sapiens, MDA-MB-415)?
**A.** 0.036 µM

**Q.** And the IC50 ([13]; Homo sapiens, MEL-JUSO)?
**A.** 0.0666 µM

**Q.** What about the IC50 ([14]; Homo sapiens, MKN-7) of the same compound?
**A.** > 0.2 µM

**Q.** What about the IC50 ([15]; Homo sapiens, NCI-H1703) of the same compound?
**A.** 0.0232 µM

**Q.** And the IC50 ([16]; Homo sapiens, NCI-H2030)?
**A.** 0.0981 µM

**Q.** And the IC50 ([17]; Homo sapiens, NCI-H2170)?
**A.** > 0.2 µM

**Q.** And the IC50 ([18]; Homo sapiens, NCI-H2405)?
**A.** > 0.2 µM

**Q.** What about the IC50 ([19]; Homo sapiens, NCI-H2452) of the same compound?
**A.** > 0.2 µM

**Q.** And the IC50 ([20]; Homo sapiens, NCI-H460)?
**A.** > 0.2 µM

**Q.** What about the IC50 ([21]; Homo sapiens, NCI-H727) of the same compound?
**A.** > 0.2 µM

**Q.** And the IC50 ([22]; Homo sapiens, NY)?
**A.** > 0.2 µM

**Q.** And the IC50 ([23]; Homo sapiens, OAW-28)?
**A.** > 0.2 µM

**Q.** And the IC50 ([24]; Homo sapiens, RCM-1)?
**A.** > 0.2 µM

**Q.** And the IC50 ([25]; Homo sapiens, RD)?
**A.** 0.144 µM

**Q.** And the IC50 ([26]; Homo sapiens, RERF-LC-MS)?
**A.** > 0.2 µM

**Q.** What about the IC50 ([27]; Homo sapiens, SCC-4) of the same compound?
**A.** > 0.2 µM

**Q.** And the IC50 ([28]; Homo sapiens, SCC-9)?
**A.** > 0.2 µM

**Q.** And the IC50 ([29]; Homo sapiens, SW13)?
**A.** 0.186 µM

**Q.** What about the IC50 ([30]; Homo sapiens, SW1417) of the same compound?
**A.** > 0.2 µM

**Q.** And the IC50 ([31]; Homo sapiens, SW-620)?
**A.** 0.106 µM

**Q.** What about the IC50 ([32]; Homo sapiens, SAOS-2) of the same compound?
**A.** > 0.2 µM

**Q.** And the IC50 ([33]; Homo sapiens, ACHN)?
**A.** > 0.2 µM

**Q.** And the IC50 ([34]; Homo sapiens, BHT-101)?
**A.** 0.197 µM

**Q.** And the IC50 ([35]; Homo sapiens, BPH-1)?
**A.** 0.0324 µM

**Q.** And the IC50 ([36]; Homo sapiens, C3A)?
**A.** > 0.2 µM

**Q.** What about the IC50 ([37]; Homo sapiens, CAKI-1) of the same compound?
**A.** 0.0687 µM

**Q.** And the IC50 ([38]; Homo sapiens, ZR-75-30)?
**A.** > 0.2 µM
